One assay concerns the target T1, PPARγ (Homo sapiens, UniProt P37231).
T1 construct: gene PPARG
T1 sequence (P37231 1-505): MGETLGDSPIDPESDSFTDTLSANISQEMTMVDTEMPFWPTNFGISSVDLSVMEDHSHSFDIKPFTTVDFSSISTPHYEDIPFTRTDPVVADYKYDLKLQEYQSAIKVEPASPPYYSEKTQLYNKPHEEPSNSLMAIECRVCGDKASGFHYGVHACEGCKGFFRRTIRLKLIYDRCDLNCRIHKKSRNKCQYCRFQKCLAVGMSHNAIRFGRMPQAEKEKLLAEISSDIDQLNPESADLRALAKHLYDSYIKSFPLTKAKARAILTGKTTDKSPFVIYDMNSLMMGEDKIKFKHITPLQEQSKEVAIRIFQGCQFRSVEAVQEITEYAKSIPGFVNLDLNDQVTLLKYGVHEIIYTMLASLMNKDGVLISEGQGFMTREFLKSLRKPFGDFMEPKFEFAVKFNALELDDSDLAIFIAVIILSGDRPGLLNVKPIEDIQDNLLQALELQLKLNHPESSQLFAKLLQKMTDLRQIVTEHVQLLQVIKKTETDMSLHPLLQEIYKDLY
The assay can be described thus: PolarScreen PPAR Gamma Competitor Assay, Green (fluorescence polarization competition). In kind it is binding. The conditions noted are these: read-out: EC50 (mean ± SD μM). (In general: Fluorescence polarisation rises when a labelled molecule tumbles more slowly, as on binding a larger partner.)

In assay [1] the target is T2, PTGS2/COX2 (Prostaglandin G/H synthase 2) (Ovis aries, UniProt P79208).
T2 sequence (P79208 17-603): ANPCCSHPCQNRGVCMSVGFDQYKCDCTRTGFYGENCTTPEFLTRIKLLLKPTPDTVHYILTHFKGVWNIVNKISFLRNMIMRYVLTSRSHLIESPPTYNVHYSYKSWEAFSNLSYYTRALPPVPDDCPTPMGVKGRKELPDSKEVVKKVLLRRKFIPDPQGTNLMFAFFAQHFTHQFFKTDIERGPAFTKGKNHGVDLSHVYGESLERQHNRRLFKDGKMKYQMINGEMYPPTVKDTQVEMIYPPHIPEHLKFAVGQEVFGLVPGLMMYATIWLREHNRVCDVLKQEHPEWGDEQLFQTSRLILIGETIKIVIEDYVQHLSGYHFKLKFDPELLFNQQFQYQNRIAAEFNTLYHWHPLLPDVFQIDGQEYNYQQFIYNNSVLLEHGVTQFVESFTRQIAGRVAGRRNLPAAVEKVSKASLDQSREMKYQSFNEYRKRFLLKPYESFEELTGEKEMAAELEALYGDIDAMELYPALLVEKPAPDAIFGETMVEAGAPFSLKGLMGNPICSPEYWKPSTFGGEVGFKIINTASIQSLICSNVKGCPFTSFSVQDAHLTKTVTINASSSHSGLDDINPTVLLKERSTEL
Briefly: Colorimetric COX (ovine) inhibitor screening assay kit (Cayman). The assay is classed as biochemical. The conditions noted are these: read-out: IC50 (mean ± SD μM).

As for `O=C(/C=C/c1ccc(O)c(O)c1)O[C@H](Cc1ccc(O)c(O)c1)C(=O)O` [RosA, Rosmarinic acid], the half-maximal effective concentration (EC50) (in general, the concentration that produces a half-maximal response) at PPARγ was 55.8 ± 3.45 µM. Besides, in assay [1], the IC50 (in general, the midpoint of a concentration-inhibition curve) was found to be 170 ± 9.18 µM.
